Assay results from publication PMC6230393, “Enhancing TFEB-Mediated Cellular Degradation Pathways by the mTORC1 Inhibitor Quercetin” (Oxidative Medicine and Cellular Longevity, 2018).

Target: mTOR (Homo sapiens, UniProt P42345)
Test: LanthaScreen TR-FRET in vitro kinase assay, purified mTOR (PV4753), GFP-4E-BP1 substrate, […] ATP, […] MnCl2
Format: biochemical

Structure (SMILES): O=c1c(O)c(-c2ccc(O)c(O)c2)oc2cc(O)cc(O)c12 [quercetin, 3,3′,4′,5,7-pentahydroxyflavone]
- IC50: 7.8 µM
